Test results from patent publication US20230391752A1, “PYRROLIDINE-3-CARBOXAMIDE DERIVATIVES AND RELATED USES” (Chulalongkorn University, priority 2020, published 2023).

How the values were obtained:
HBV [1] = test: In vitro anti-HBV activity in HepG2.2.15 cell line (intracellular HBV DNA by qPCR at 1 μM); type: cell-based; details: Hepatitis B virus, 144 h; HepG2.2.15 cells, 1 μM compound, 6 days, intracellular HBV DNA as percentage compared to vehicle control (0.5% DMSO)
Summary of the method: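 Intracellular HBV DNA was quantified by qPCR and given as percent of vehicle (0.5% DMSO), grouped into letter ranges. Stably transfected HepG2.2.15 cells had 6 days of exposure to 1 μM compound, with medium and compound renewed after day 3.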

HBV core protein (Cp149) = target: T1, HBV core protein (Cp149) (Hepatitis B virus genotype D subtype ayw, UniProt P03146); test: HBV capsid assembly by size exclusion chromatography (SEC); type: biochemical; details: 50 μM compound, 15 μM Cp149, 16 hours at 21° C.
T1 construct: HBV core C-terminally truncated protein (HBV Cp149); made in house
T1 sequence (P03146 1-149): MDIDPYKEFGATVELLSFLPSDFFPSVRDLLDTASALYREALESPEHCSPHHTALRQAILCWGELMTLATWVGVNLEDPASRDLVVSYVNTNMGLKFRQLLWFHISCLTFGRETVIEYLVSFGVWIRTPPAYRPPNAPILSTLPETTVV

HBV [2] = test: Effect on intrahepatic HBV DNA levels in HepG2.2.15 cells (EC50); type: cell-based; details: Hepatitis B virus, 144 h, 6 days, intrahepatic HBV DNA by qPCR, read-out: Anti-HBV DNA (EC50)
Experimental: HepG2.2.15 cells were treated with compounds, at various concentrations in 10% FCS containing medium, at 37° C. for three days. After that the medium was removed and fresh medium containing the compound was added to the cells for another 3 days. After 6 days of treatment, intrahepatic HBV DNA from cell lysates were isolated. Then qPCR reaction of DNA was performed to measure total HBV DNA levels using specific primer set. The fifty-percent effective concentrations (EC50) for HBV DNA inhibition, relative to no drug controls, was determined using nonlinear fitting curve model. EC50 ranges for HBV DNA inhibition were as follows: A>0.3 μM, B=0.05-0.3 μM, C<0.05 μM (Table B).

SMILES	activity at 1 µM (HBV [1]) [%]	Size of induced capsids based on SEC retention times (HBV core protein (Cp149))	EC50 (HBV [2]) [nM]
O=C(Nc1cc(F)c(F)c(F)c1)[C@H]1CCN(C(=O)c2ccc(Cl)[nH]2)C1 [Example 52, (S)-1-(5-chloro-1H-pyrrole-2-carbonyl)-N-(3,4,5-trifluorophenyl)pyrrolidine-3-carboxamide]	70 to 80	induced capsids similar in size to NVR 3-778	–
Cc1ncc(-c2ccc(C(=O)N3CC[C@H](C(=O)Nc4ccc(F)c(Cl)c4)[C@@H]3C)[nH]2)cn1 [Example 127, (2S,3S)—N-(3-chloro-4-fluorophenyl)-2-methyl-1-(5-(2-methylpyrimidin-5-yl)-1H-pyrrole-2-carbonyl)pyrrolidine-3-carboxamide]	< 45	–	50 to 300
N#Cc1c(C(=O)N2CC[C@H](C(=O)Nc3cc(F)c(F)c(F)c3)C2)[nH]c2ccccc12 [Example 45, (S)-1-(3-cyano-1H-indole-2-carbonyl)-N-(3,4,5-trifluorophenyl)pyrrolidine-3-carboxamide]	60 to 70	induced capsids similar in size to NVR 3-778	–
Cc1ncnc(C)c1-c1ccc2cc(C(=O)N3CC[C@H](C(=O)Nc4cc(F)c(F)c(F)c4)C3)[nH]c2c1 [Example 132, (S)-1-(6-(4,6-dimethylpyrimidin-5-yl)-1H-indole-2-carbonyl)-N-(3,4,5-trifluorophenyl) pyrrolidine-3-carboxamide]	45 to 60	induced capsids similar in size to NVR 3-778	–
O=C(Nc1ccc(F)c(Cl)c1)[C@H]1CCN(C(=O)c2[nH]c3ccccc3c2Cl)C1 [Example 41, (S)-1-(3-chloro-1H-indole-2-carbonyl)-N-(3-chloro-4-fluoro-phenyl)pyrrolidine-3-carboxamide]	< 45	–	50 to 300
Cc1c(-c2ccc(C(=O)N3CC[C@H](C(=O)Nc4cc(F)c(F)c(F)c4)C3)[nH]2)cnc2[nH]ccc12 [Example 129, (S)-1-(5-(4-methyl-1H-pyrrolo[2,3-b]pyridin-5-yl)-1H-pyrrole-2-carbonyl)-N-(3,4,5-trifluorophenyl)pyrrolidine-3-carboxamide]	< 45	induced capsids similar in size to NVR 3-778	–
C[C@H]1[C@@H](C(=O)Nc2ccc(F)c(C#N)c2)CCN1C(=O)c1[nH]c2cc(-c3cn[nH]c3)ccc2c1Cl [Example 141, (2S,3S)-1-(3-chloro-6-(1H-pyrazol-4-yl)-1H-indole-2-carbonyl)-N-(3-cyano-4-fluorophenyl)-2-methylpyrrolidine-3-carboxamide]	< 45	capsid retention times between BAY 41-4109 and NVR 3-778	–
Cc1ncnc(C)c1-c1ccc2c(Cl)c(C(=O)N3CC[C@H](C(=O)Nc4cc(F)c(F)c(F)c4)C3)[nH]c2c1 [Example 133, (S)-1-(3-chloro-6-(4,6-dimethylpyrimidin-5-yl)-1H-indole-2-carbonyl)-N-(3,4,5-trifluorophenyl)pyrrolidine-3-carboxamide]	45 to 60	capsid retention times between BAY 41-4109 and NVR 3-778	–
O=Cc1c[nH]c2cc(C(=O)N3CC[C@H](C(=O)Nc4cc(F)c(F)c(F)c4)C3)ccc12 [Example 36, (S)-1-(3-formyl-1H-indole-6-carbonyl)-N-(3,4,5-trifluorophenyl)pyrrolidine-3-carboxamide]	70 to 80	–	–
Cc1nccnc1-c1ccc2c(Cl)c(C(=O)N3CC[C@H](C(=O)Nc4ccc(F)c(C#N)c4)C3)[nH]c2c1 [Example 139, (S)-1-(3-chloro-6-(3-methylpyrazin-2-yl)-1H-indole-2-carbonyl)-N-(3-cyano-4-fluorophenyl) pyrrolidine-3-carboxamide]	< 45	capsid retention times between BAY 41-4109 and NVR 3-778	–
Cc1c[nH]nc1C(=O)N1CC[C@H](C(=O)Nc2cc(F)c(F)c(F)c2)C1 [Example 29, (S)-1-(4-methyl-1H-pyrazole-3-carbonyl)-N-(3,4,5-trifluorophenyl)pyrrolidine-3-carboxamide]	> 90	–	–
Cc1c(-c2ccc(C(=O)N3CC[C@H](C(=O)Nc4cc(F)c(F)c(F)c4)C3)[nH]2)c2ncccc2n1C [Example 152, (S)-1-(5-(1,2-dimethyl-1H-pyrrolo[3,2-b]pyridin-3-yl)-1H-pyrrole-2-carbonyl)-N-(3,4,5-trifluorophenyl)pyrrolidine-3-carboxamide]	> 90	–	–
CC(=O)c1c[nH]c(C(=O)N2CC[C@H](C(=O)Nc3cc(F)c(F)c(F)c3)C2)c1 [Example 38, (S)-1-(4-acetyl-1H-pyrrole-2-carbonyl)-N-(3,4,5-trifluorophenyl)pyrrolidine-3-carboxamide]	> 90	–	–
Cc1ncccc1-c1ccc(C(=O)N2CC[C@H](C(=O)Nc3cc(F)c(F)c(F)c3)C2)[nH]1 [Example 80, (S)-1-(5-(2-methylpyridin-3-yl)-1H-pyrrole-2-carbonyl)-N-(3,4,5-trifluorophenyl) pyrrolidine-3-carboxamide]	< 45	–	–
O=C(Nc1cc(F)c(F)c(F)c1)[C@H]1CCN(C(=O)c2[nH]ccc2Cl)C1 [Example 16, (S)-1-(3-chloro-1H-pyrrole-2-carbonyl)-N-(3,4,5-trifluorophenyl)pyrrolidine-3-carboxamide]	> 90	–	–
O=C(Nc1cc(F)c(F)c(F)c1)[C@H]1CCN(C(=O)c2cc3cccnc3[nH]2)C1 [Example 54, (S)-1-(1H-pyrrolo[2,3-b]pyridine-2-carbonyl)-N-(3,4,5-trifluorophenyl)pyrrolidine-3-carboxamide]	70 to 80	–	–
N#Cc1cc(NC(=O)[C@H]2CCN(C(=O)c3ccc(-c4cccnc4)[nH]3)C2)ccc1F [Example 75, (S)—N-(3-cyano-4-fluorophenyl)-1-(5-(pyridin-3-yl)-1H-pyrrole-2-carbonyl)pyrrolidine-3-carboxamide]	60 to 70	–	–
O=C(Nc1cc(F)c(F)c(F)c1)[C@H]1CCN(C(=O)c2cc3cc(F)ccc3[nH]2)C1 [Example 57, (S)-1-(5-fluoro-1H-indole-2-carbonyl)-N-(3,4,5-trifluorophenyl)pyrrolidine-3-carboxamide]	> 90	–	–
Cc1ccc(C(=O)N2CC[C@H](C(=O)Nc3cc(F)c(F)c(Cl)c3)C2)[nH]1 [Example 62, (S)—N-(3-chloro-4,5-difluorophenyl)-1-(5-methyl-1H-pyrrole-2-carbonyl)pyrrolidine-3-carboxamide]	45 to 60	–	–
O=C(Nc1ccc(F)c(Cl)c1)[C@H]1CCN(C(=O)c2ncc[nH]2)C1 [Example 32, (S)—N-(3-chloro-4-fluorophenyl)-1-(1H-imidazole-2-carbonyl)pyrrolidine-3-carboxamide]	80 to 90	–	–
COc1ncnc(C)c1-c1ccc(C(=O)N2CC[C@H](C(=O)Nc3ccc(F)c(Cl)c3)C2)[nH]1 [Example 106, (S)—N-(3-chloro-4-fluorophenyl)-1-(5-(4-methoxy-6-methylpyrimidin-5-yl)-1H-pyrrole-2-carbonyl)pyrrolidine-3-carboxamide]	< 45	–	–
O=C(Nc1cc(F)c(F)c(F)c1)[C@H]1CCN(C(=O)c2ccc(-c3ccncc3F)[nH]2)C1 [Example 95, (S)-1-(5-(3-fluoropyridin-4-yl)-1H-pyrrole-2-carbonyl)-N-(3,4,5-trifluorophenyl) pyrrolidine-3-carboxamide]	45 to 60	–	–
O=C(Nc1cc(F)c(F)c(Br)c1)[C@H]1CCN(C(=O)c2cc3ccccc3[nH]2)C1 [Example 10, (S)—N-(3-bromo-4,5-difluorophenyl)-1-(1H-indole-2-carbonyl)pyrrolidine-3-carboxamide]	70 to 80	–	–
Cc1n[nH]c(C)c1-c1ccc(C(=O)N2CC[C@H](C(=O)Nc3cc(F)c(F)c(F)c3)C2)[nH]1 [Example 87, (S)-1-(5-(3,5-dimethyl-1H-pyrazol-4-yl)-1H-pyrrole-2-carbonyl)-N-(3,4,5-trifluorophenyl) pyrrolidine-3-carboxamide]	< 45	–	–
O=C(Nc1cc(F)c(F)c(F)c1)[C@H]1CCN(C(=O)c2nc3ccccc3[nH]2)C1 [Example 25, (S)-1-(1H-benzo[d]imidazole-2-carbonyl)-N-(3,4,5-trifluorophenyl)pyrrolidine-3-carboxamide]	60 to 70	–	–
Cc1ncncc1-c1ccc(C(=O)N2CC[C@H](C(=O)Nc3cc(F)c(F)c(F)c3)C2)[nH]1 [Example 89, (S)-1-(5-(4-methylpyrimidin-5-yl)-1H-pyrrole-2-carbonyl)-N-(3,4,5-trifluorophenyl) pyrrolidine-3-carboxamide]	< 45	–	–
O=C(NCc1cnc(Cl)s1)[C@H]1CCN(C(=O)c2[nH]c3ccccc3c2Cl)C1 [Example 71, (S)-1-(3-chloro-1H-indole-2-carbonyl)-N-((2-chlorothiazol-5-yl)methyl)pyrrolidine-3-carboxamide]	70 to 80	–	–
Cc1ncsc1-c1ccc(C(=O)N2CC[C@H](C(=O)Nc3cc(F)c(F)c(F)c3)C2)[nH]1 [Example 108, (S)-1-(5-(4-methylthiazol-5-yl)-1H-pyrrole-2-carbonyl)-N-(3,4,5-trifluorophenyl) pyrrolidine-3-carboxamide]	45 to 60	–	–
